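Values below derive from 48-hour exposures of cells grown in 96-well plates, with endpoints linearly interpolated between the two concentrations bracketing the appropriate inhibition level. Abbreviation: GI50, concentration required for 50% inhibition of growth.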 Active and inactive are the calls of the source. No stated cut-off is given here; in the data, active = GI50 up to about 1.1 µM and inactive = higher.
Tests used:
Assay in all cases: NCI tumour cell line growth inhibition, 48 h
MOLT-4 = tested on: MOLT-4
SK-MEL-28 = tested on: SK-MEL-28
A549 = tested on: A549
UACC-257 = tested on: UACC-257
OVCAR-5 = tested on: OVCAR-5
HOP-62 = tested on: HOP-62
RXF 631 = tested on: RXF 631
LOX IMVI = tested on: LOX IMVI
M14 = tested on: M14
K562 = tested on: K562
SK-OV-3 = tested on: SK-OV-3
HCT-116 = tested on: HCT-116
HT-29 = tested on: HT-29
HCC 2998 = tested on: HCC 2998
HOP-92 = tested on: HOP-92
IGROV-1 = tested on: IGROV-1
SNB-19 = tested on: SNB-19
SNB-75 = tested on: SNB-75
RPMI-8226 = tested on: RPMI-8226
NCI-H226 = tested on: NCI-H226
LXFL 529 = tested on: LXFL 529
UACC-62 = tested on: UACC-62
KM12 = tested on: KM12
OVCAR-8 = tested on: OVCAR-8
EKVX = tested on: EKVX
SF-268 = tested on: SF-268
SF-295 = tested on: SF-295
COLO 205 = tested on: COLO 205
RXF 393 = tested on: RXF 393
Malme-3M = tested on: Malme-3M
UO-31 = tested on: UO-31
TK-10 = tested on: TK-10
U-251 = tested on: U-251
KM-20L2 = tested on: KM-20L2
SN12C = tested on: SN12C
CCRF-CEM = tested on: CCRF-CEM
ACHN = tested on: ACHN
SF-539 = tested on: SF-539
HCT-15 = tested on: HCT-15
786-0 = tested on: 786-0
NCI-H460 = tested on: NCI-H460
SNB-78 = tested on: SNB-78
NCI-H23 = tested on: NCI-H23
DLD-1 = tested on: DLD-1
OVCAR-4 = tested on: OVCAR-4
NCI-H522 = tested on: NCI-H522
HOP-18 = tested on: HOP-18
SK-MEL-5 = tested on: SK-MEL-5
HL-60 = tested on: HL-60
M19-MEL = tested on: M19-MEL
A498 = tested on: A498
SR = tested on: SR
DMS-273 = tested on: DMS-273
SK-MEL-2 = tested on: SK-MEL-2
OVCAR-3 = tested on: OVCAR-3
DMS-114 = tested on: DMS-114

With `N#CC(C(=O)CCC(=O)Nc1cccc(Cl)c1)c1ccccc1` (stereo unspecified) the GI50 (MOLT-4) was > 100 µM (inactive), the GI50 (SK-MEL-28) was > 100 µM (inactive) and the GI50 (A549) was > 100 µM (inactive). For the same compound, the GI50 (UACC-257) was > 100 µM (inactive), the GI50 (OVCAR-5) was > 100 µM (inactive) and the GI50 (HOP-62) was > 100 µM (inactive). The GI50 (RXF 631) was > 100 µM (inactive), the GI50 (LOX IMVI) was > 100 µM (inactive) and the GI50 (M14) was > 100 µM (inactive). For the same compound, the GI50 (K562) was > 100 µM (inactive), the GI50 (SK-OV-3) was > 100 µM (inactive) and the GI50 (HCT-116) was > 100 µM (inactive). The GI50 (HT-29) was > 100 µM (inactive), the GI50 (HCC 2998) was > 100 µM (inactive) and the GI50 (HOP-92) was > 100 µM (inactive). For the same compound, the GI50 (IGROV-1) was > 100 µM (inactive), the GI50 (SNB-19) was 4.05 µM (inactive) and the GI50 (SNB-75) was > 100 µM (inactive). The GI50 (RPMI-8226) was > 100 µM (inactive), the GI50 (NCI-H226) was > 100 µM (inactive) and the GI50 (LXFL 529) was > 100 µM (inactive). For the same compound, the GI50 (UACC-62) was > 100 µM (inactive), the GI50 (KM12) was > 100 µM (inactive) and the GI50 (OVCAR-8) was > 100 µM (inactive). The GI50 (EKVX) was > 100 µM (inactive), the GI50 (SF-268) was > 100 µM (inactive) and the GI50 (SF-295) was > 100 µM (inactive). The GI50 (COLO 205) was > 100 µM (inactive), the GI50 (RXF 393) was > 100 µM (inactive) and the GI50 (Malme-3M) was > 100 µM (inactive). The GI50 (UO-31) was > 100 µM (inactive), the GI50 (TK-10) was > 100 µM (inactive) and the GI50 (U-251) was > 100 µM (inactive). For the same compound, the GI50 (KM-20L2) was > 100 µM (inactive), the GI50 (SN12C) was > 100 µM (inactive) and the GI50 (CCRF-CEM) was > 100 µM (inactive). The GI50 (ACHN) was > 100 µM (inactive), the GI50 (SF-539) was > 100 µM (inactive) and the GI50 (HCT-15) was > 100 µM. For the same compound, the GI50 (786-0) was > 100 µM (inactive), the GI50 (NCI-H460) was > 100 µM (inactive) and the GI50 (SNB-78) was > 100 µM (inactive). For the same compound, the GI50 (NCI-H23) was > 100 µM (inactive), the GI50 (DLD-1) was > 100 µM (inactive) and the GI50 (OVCAR-4) was > 100 µM (inactive). For the same compound, the GI50 (NCI-H522) was > 100 µM (inactive), the GI50 (HOP-18) was > 100 µM (inactive) and the GI50 (SK-MEL-5) was > 100 µM (inactive). The GI50 (HL-60) was > 100 µM (inactive), the GI50 (M19-MEL) was > 100 µM (inactive) and the GI50 (A498) was > 100 µM (inactive). The GI50 (SR) was > 100 µM (inactive), the GI50 (DMS-273) was > 100 µM (inactive) and the GI50 (SK-MEL-2) was > 100 µM (inactive). For the same compound, the GI50 (OVCAR-3) was > 100 µM (inactive) and the GI50 (DMS-114) was > 100 µM (inactive).
